Test results reported in patent US20080160553A1, “Method of preparing heart muscle cells and method of searching for remedy for heart diseases” (Takeda Pharmaceutical Company Limited, priority 2000, published 2008).

Experiments:
[1] = test system: heart muscle cells; conditions: by activating Akt; cited from earlier work
[2] = test system: heart muscle cells of rat newborns; assay: Inhibition of serum-removal-induced apoptosis of heart muscle cells, conventional MTT reduction method (no serum re-addition); type: cell-based; conditions: 1000 U/ml hLIF, 4 days serum-free, MTT as coloration substrate
Description: (§1) Using the heart muscle cells of rat newborns obtained by the present method of preparing heart muscle cells as described in Example 1, their apoptosis was induced by removing serum from the culture, and the inhibitory action of recombinant human leukemia inhibitory factor (hLIF, produced by Peprotech) on the apoptosis was detected by the conventional method with MTT as the coloration substrate and by the present method of detecting apoptosis with WST-8 or MTT as the coloration substrate, and the sensitivity of the two methods was compared.
First, the muscle cells obtained in the method of preparing heart muscle cells according to the invention were suspended at a density of 3×10^5 cells/ml in Medium 199 containing 10% fetal calf serum, put onto a 96-wells plate in a volume of 0.1 ml/well, and then cultured for 1 day in a CO2 incubator set at 5% CO2, 37° C. […] In the conventional method, the number of viable cells in the culture was measured directly with MTT as the coloration substrate. In the method of the invention, on the other hand, fetal calf serum was added thereto at a concentration of 10%, and the cells were further cultured for about 17 hours in a CO2 incubator set at 5% CO2, 37° C., and the number of viable cells was determined by using WST-8 or MTT as the coloration substrate.

[3] = test system: heart muscle cells of rat newborns; assay: Inhibition of serum-removal-induced apoptosis of heart muscle cells, present detection method (serum re-added, about 17 h) with MTT; type: cell-based; conditions: 1000 U/ml hLIF, 4 days serum-free, then 10% serum about 17 h, MTT as coloration substrate
Procedure: (§2) The heart muscle cells obtained by the method of the invention are adjusted to a cell density of 3×10^4 cells/well (96-wells plate) and cultured in serum-free medium such as Medium 199 in a CO2 incubator set at 5% CO2, 37° C. for 4 days, thus inducing apoptosis to reduce the survival rate of the heart muscle cells to 50% or less.
(§3) Serum such as FCS is added at a final concentration of 10% to the culture, which is then cultured for about 17 hours and measured for its dehydrogenase activity (reduction activity) with MTT or WST-8 as the coloration substrate, to determine the number of viable cells.
as §1, with “compared. […]” for “compared.”

[4] = test system: heart muscle cells of rat newborns; assay: Inhibition of serum-removal-induced apoptosis of heart muscle cells, present detection method (serum re-added, about 17 h) with WST-8; type: cell-based; conditions: 1000 U/ml hLIF
Procedure: as §2, §3, §1
First, the muscle cells obtained in the method of preparing heart muscle cells according to the invention were suspended at a density of 3×10^5 cells/ml in Medium 199 containing 10% fetal calf serum, put onto a 96-wells plate in a volume of 0.1 ml/well, and then cultured for 1 day in a CO2 incubator set at 5% CO2, 37° C. The plate was stirred with a micromixer (Taiyo Kagaku Kogyo Co., Ltd.) and the medium was exchanged 3 times with serum-free Medium 199, followed by adding 0 to 1000 U/ml hLIF. The culture was incubated for additional 4 days to induce apoptosis. In the conventional method, the number of viable cells in the culture was measured directly with MTT as the coloration substrate. In the method of the invention, on the other hand, fetal calf serum was added thereto at a concentration of 10%, and the cells were further cultured for about 17 hours in a CO2 incubator set at 5% CO2, 37° C., and the number of viable cells was determined by using WST-8 or MTT as the coloration substrate. […]
First, the heart muscle cells obtained in the method described in Example 1 were suspended at a density of 3×10^5 cells/ml in Medium 199 containing 10% fetal bovine serum, and put in a volume of 0.1 ml/well onto each well of 2nd to 11th rows on each of three 96-wells plates. […] The cells were cultured for 4 days to induce apoptosis, and fetal calf serum was added at a concentration of 10%, and the cells were cultured for additional 17 hours in a CO2 incubator set at 5% CO2, 37° C., and then the number of viable cells was counted with WST-8 as the coloration substrate.

Substance | effect on apoptosis of heart muscle cells [1] | increase in the average absorbance as compared with the control group [2] | increase in absorbance relative to control group [3] | increase in average absorbance relative to control group ([4]; 4 days serum-free, then 10% serum about 17 h, WST-8 as coloration substrate) | average absorbance (number of viable cells) ([4]; plate 1, WST-8, control 0.22±0.039) | average absorbance (number of viable cells) ([4]; plate 2, WST-8, control 0.15±0.028) | average absorbance (number of viable cells) ([4]; plate 3, WST-8, control 0.13±0.020)
hIGF-1: recombinant human IGF-1 (hIGF-1, produced by Peprotech) | inhibit apoptosis of heart muscle cells | – | – | – | – | – | –
hLIF: recombinant human leukemia inhibitory factor (hLIF, produced by Peprotech) | – | ≤ 0.03 | ~0.1 | ≥ 0.3 | 0.54±0.055 | 0.45±0.035 | 0.43±0.059
